Read-outs that look alike come from different tables or passages of the source. No end group written: not given here.
Columns and labels:
HLA-A*02:06 molecule = target: T1, HLA-A*02:06 molecule (Homo sapiens, UniProt P04439, D140Y/D185E/D98H/E176V/E277Q/F33Y/G131W/G231S/I119V/I121R/I166T/I218V/L300P/L318F/N151K/N90K/P208A/P217A/Q86G/Q94H/R138H/R169H/T345S); test: Binding of peptide to HLA-A*02:06 molecule using RA2.6 cells
T1 construct: expressed in transfected cells; host or cells: RA2.6 cells (mouse TAP-deficient RMAS with HLA-A*02:06 cDNA)
Description: Measurement of binding ability of a peptide to an HLA-A*02:06 molecule, which is a product of an HLA-A*02:06 gene, was performed using RA2.6 cells (a cell line newly created at Kochi University) obtained by introducing cDNA of the HLA-A*02:06 gene into RMAS, which is a mouse transporter associated with antigen processing (TAP)-deficient cell line.
A fluorescently labeled monoclonal antibody BB7.2 that specifically recognizes a peptide binding type HLA-A*02:06 molecule was added thereto, and the mixture was incubated on ice for 20 minutes to stain the cells.

HLA-A*24:02 molecule = HLA-A*24:02 molecule (Homo sapiens, UniProt P04439, D101N/D140Y/D185E/E176V/E190D/F33S/G103R/G107R/I119L/I121M/I306V/K335N/L105A/L180Q/L300P/N151K/N90K/Q86E/Q94H/R106L/R138H/R89G/T104I/T345S/V100E/W191G/Y123F); test: Binding of peptide to HLA-A*24:02 molecule using C1R-A24 cells
Description: Measurement of binding ability of a peptide to an HLA-A*24:02 molecule, which is a product of an HLA-A*24:02 gene, was performed using C1R-A24 cells expressing an HLA-A*24:02 molecule (Cells created by Professor Masafumi Takiguchi, Kumamoto University, was provided by Assistant Professor Masaki Yasukawa, Ehime University, with permission).
First, the C1R-A24 cells were exposed to acidic conditions at pH 3.3 for 30 seconds to dissociate and remove an endogenous peptide originally binding to an HLA-A*24:02 molecule and light chain β2m commonly associated with an HLA class I molecule. After neutralization, purified β2m was added to the C1R-A24 cells, and the mixture was added to a peptide dilution series and incubated on ice for four hours.
Thereafter, the number of MHC-peps for each C1R-A24 cell (proportional to a fluorescence intensity of the fluorescent antibody) was quantitatively measured using a fluorescence cell analyzer FACScan (Becton-Dickinson).

HLA-A*02:01 molecule = target: T2, HLA-A*02:01 molecule (Homo sapiens, UniProt P04439, D140Y/D185E/D98H/E176V/E277Q/G131W/G231S/I119V/I121R/I166T/I218V/L300P/L318F/N151K/N90K/P208A/P217A/Q86G/Q94H/R138H/R169H/T345S); test: Binding of peptide to HLA-A*02:01 molecule using cell line T2
T2 construct: using a cell line T2 (purchased from ATCC) expressing an HLA-A*02:01 molecule; host or cells: T2 cell line
Description: Measurement of binding ability of a peptide to an HLA-A*02:01 molecule, which is a product of an HLA-A*02:01 gene, was performed using a cell line T2 (purchased from ATCC) expressing an HLA-A*02:01 molecule.
T2 cells and purified β2m were added to a serial dilution series of a peptide whose binding ability was to be measured, and then the mixture was incubated at 37° C. for four hours. HLA-A*02:01 molecules whose expression level increased in a peptide concentration-dependent manner by this time point were stained using an association-type specific fluorescently labeled monoclonal antibody BB7.2.
Thereafter, the amount of fluorescence per cell was measured with a flow cytometer, and a dissociation constant Kd value was calculated by the method disclosed in the article (Udaka et al., Immunogenetics, 51, 816-828, 2000) by the present inventor.

[1] = Table 2, dissociation constant Kd value (−log Kd value), >−3.0 = no significant binding ability, read-out: Measured value of allele A*02:06 (converted)
[2] = Table 2, dissociation constant Kd value (−log Kd value), >−3.0 = no significant binding ability, read-out: Measured value of allele A*24:02 (converted)
[3] = Table 2, dissociation constant Kd value (−log Kd value), >−3.0 = no significant binding ability, read-out: Measured value of allele A*02:01 (converted)
[4] = Table 4, Kd value (−log Kd value), smaller than −3 = binding property, read-out: Measured value of allele A*24:02 (converted)
[5] = Table 4, Kd value (−log Kd value), smaller than −3 = binding property, read-out: Measured value of allele A*02:01 (converted)

Sequence | Kd (HLA-A*02:06 molecule; [1]) [µM] | Kd (HLA-A*24:02 molecule; [2]) [µM] | Kd (HLA-A*02:01 molecule; [3]) [µM] | Kd (HLA-A*24:02 molecule; [4]) [µM] | further results
LLNPNRQTI [compound 23] | 296 | 0.602 | 5.74 | – | –
LMEEHGATL [compound 13] | 2.1 | 5.98 | 12.1 | – | –
LMITRKSFI [compound 17] | 29.3 | 0.972 | 6.26 | – | –
LPFSPSQFL [compound 60] | > 1000 | 448 | > 1000 | – | –
LPPARHSTI [compound 76] | > 1000 | > 1000 | > 1000 | > 1000 | –
LTEEHGATL [compound 42] | 11.9 | > 1000 | 82.1 | > 1000 | –
LTITRKSFI [compound 45] | 162 | 15 | > 1000 | – | –
LVEEHGATL [compound 43] | 13.7 | > 1000 | 66.1 | > 1000 | –
LVITRKSFI [compound 30] | 243 | 3.47 | 97.6 | – | –
MLPQTPSHL [compound 24] | 109 | 0.0716 | 2.64 | – | –
SLLITRKSF [compound 62] | > 1000 | 1.44 | > 1000 | – | –
SLPFSPSQF [compound 56] | > 1000 | 0.1 | > 1000 | – | –
SLPNEKQTS [compound 69] | > 1000 | > 1000 | > 1000 | > 1000 | –
SLVLTWAAL [compound 14] | 0.572 | 4.89 | 2.36 | – | –
SPDEFSNDF [compound 73] | > 1000 | > 1000 | > 1000 | > 1000 | –
SSFEFFEEA [compound 37] | 0.0377 | > 1000 | 0.32 | > 1000 | –

Sequence | Kd (HLA-A*02:06 molecule; [1]) [µM] | Kd (HLA-A*24:02 molecule; [2]) [µM] | Kd (HLA-A*02:01 molecule; [3]) [µM] | Kd (HLA-A*24:02 molecule; [4]) [µM] | further results
SSLDPPKVL [compound 55] | > 1000 | 4.47 | > 1000 | – | –
STGESAQTS [compound 71] | > 1000 | > 1000 | > 1000 | > 1000 | –
THLDAGTVE [compound 75] | > 1000 | > 1000 | > 1000 | > 1000 | –
TLTAWQHGL [compound 33] | – | – | – | – | Kd (HLA-A*02:06 molecule): 1.42 µM; Kd (HLA-A*24:02 molecule): 20.1 µM; Kd (HLA-A*02:01 molecule): 1.11 µM
TVLVPPRNL [compound 48] | > 1000 | 5.36 | > 1000 | 5.36 | Measured value of allele A*02:06 (HLA-A*02:06 molecule; Table 4, Kd value (−log Kd value), smaller than −3 = binding property): >−3; Kd (HLA-A*02:01 molecule; [5]): > 1000 µM
VFGRVMQID [compound 66] | > 1000 | 3.87 | > 1000 | – | –
VLLQQFQTA [compound 15] | 3.4 | 2.81 | 19.3 | – | –
VLPPARHST [compound 54] | > 1000 | > 1000 | 7.73 | > 1000 | –
VMQIDGVQP [compound 67] | 389 | > 1000 | > 1000 | > 1000 | –
VMSHHGEKL [compound 19] | 50.4 | 0.793 | 8.32 | – | –
YFFTVIFSF [compound 44] | > 39.8 | 0.168 | > 1000 | – | –
YLYDPPTTI [compound 4] | 1.36 | 0.692 | 0.583 | – | –
YPGWHSTTI [compound 52] | > 1000 | 2.18 | – | – | Kd (HLA-A*02:01 molecule): > 1000 µM
YQLSPPITW [compound 32] | – | – | – | – | Kd (HLA-A*02:06 molecule): 1.78 µM; Kd (HLA-A*24:02 molecule; Measured value of allele A*24:02, Table 2, dissociation constant Kd value (−log Kd value), >−3.0 = no significant binding ability): 1.72 µM; Kd (HLA-A*24:02 molecule; Measured value of allele A*24:02, Table 4, Kd value (−log Kd value), smaller than −3 = binding property): 0.172 µM; Kd (HLA-A*02:01 molecule): 351 µM
YTYDPPTTI [compound 3] | – | 3.11 | 0.336 | – | Kd (HLA-A*02:06 molecule; Table 4, Kd value (−log Kd value), smaller than −3 = binding property, read-out: Measured value of allele A*02:06 (converted)): 0.669 µM; Kd (HLA-A*02:01 molecule; [5]): 3.36 µM
YVYDPPTTI [compound 2] | 2.8 | 0.584 | 0.696 | – | –

From patent US20250236642A1, “PHARMACEUTICAL COMPOSITION FOR TREATMENT OR PREVENTION OF ADULT T-CELL LEUKEMIA” (NEC Corporation, priority 2022, published 2025)
